Active and inactive are the calls of the source.
Key:
[1] = tested on: CHO-K1; experiment: (§1) Counterscreen for antagonists of the orexin 1 receptor (OX1R; HCRTR1): Homogeneous time resolved fluorescence (HTRF)-based cell-based dose response assay to identify antagonists of the parental CHO-K1 cell line. [Related pubchem assays (depositor defined):AID434989, AID435008, AID463079, AID485270, AID492963, AID492964, AID492965, AID493232, AID504699, AID504701]; type: functional; conditions: Cricetulus griseus
[2] = as §1, with “Fluorescence-based” for “Homogeneous time resolved fluorescence (HTRF)-based”, “cell-based high throughput” for “cell-based”, “CHO” for “CHO-K1”; type: functional
[3] = target: T1, Orexin/Hypocretin receptor type 1 (Homo sapiens, UniProt O43613); experiment: Homogeneous Time Resolved Fluorescence (HTRF)-based cell-based high throughput dose response assay for antagonists of the orexin 1 receptor (OX1R; HCRTR1). [Related pubchem assays (depositor defined):AID434989, AID435008, AID463079, AID485270, AID492963, AID492964, AID492965, AID493232, AID504717, AID504718]; type: functional
T1 sequence (O43613 whole entry): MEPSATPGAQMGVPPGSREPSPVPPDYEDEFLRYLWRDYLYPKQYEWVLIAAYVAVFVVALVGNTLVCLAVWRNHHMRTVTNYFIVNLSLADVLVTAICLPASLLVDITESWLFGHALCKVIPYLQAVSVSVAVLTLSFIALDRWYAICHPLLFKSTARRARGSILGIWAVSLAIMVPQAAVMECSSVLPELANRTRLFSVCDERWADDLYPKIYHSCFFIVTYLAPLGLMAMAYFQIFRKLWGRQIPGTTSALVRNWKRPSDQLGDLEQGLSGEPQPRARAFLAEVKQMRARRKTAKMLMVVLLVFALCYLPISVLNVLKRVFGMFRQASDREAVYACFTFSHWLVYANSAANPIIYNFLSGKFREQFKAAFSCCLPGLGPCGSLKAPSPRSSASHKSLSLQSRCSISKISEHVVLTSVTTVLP

[4] = target: T1, Orexin/Hypocretin receptor type 1; experiment: Fluorescence-based cell-based high throughput dose response assay for antagonists of the orexin 1 receptor (OX1R; HCRTR1). [Related pubchem assays (depositor defined):AID434989, AID435008, AID463079, AID485270, AID492963, AID492964, AID492965, AID493232, AID504717, AID504718]; type: functional
[5] = target: T2, Orexin receptor type 2 (Homo sapiens, UniProt O43614); experiment: Counterscreen assay for antagonists of the orexin 1 receptor (OX1R; HCRTR1): Fluorescence-based cell-based dose response assay for antagonists of the orexin 2 receptor (OX2R; HCRTR2), run by assay provider.; type: functional
T2 sequence (O43614 whole entry): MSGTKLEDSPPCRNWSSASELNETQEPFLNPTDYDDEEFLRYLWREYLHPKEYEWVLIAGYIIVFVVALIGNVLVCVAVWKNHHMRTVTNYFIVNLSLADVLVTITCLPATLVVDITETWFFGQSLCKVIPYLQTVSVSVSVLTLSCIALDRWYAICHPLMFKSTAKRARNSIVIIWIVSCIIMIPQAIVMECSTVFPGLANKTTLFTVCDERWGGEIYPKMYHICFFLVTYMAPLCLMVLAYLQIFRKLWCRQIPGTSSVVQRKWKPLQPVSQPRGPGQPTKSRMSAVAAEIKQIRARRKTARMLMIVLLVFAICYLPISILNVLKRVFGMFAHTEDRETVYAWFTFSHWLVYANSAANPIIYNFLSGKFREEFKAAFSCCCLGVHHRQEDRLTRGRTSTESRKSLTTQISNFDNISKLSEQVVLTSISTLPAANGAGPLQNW

[6] = target: T2, Orexin receptor type 2; experiment: Counterscreen assay for antagonists of the orexin 1 receptor (OX1R; HCRTR1): Homogeneous Time Resolved Fluorescence (HTRF)-based cell-based dose response assay for antagonists of the orexin 2 receptor (OX2R; HCRTR2), run by assay provider.; type: functional
[7] = target: 26S proteasome non-ATPase regulatory subunit 14 (Homo sapiens, UniProt O00487); experiment: inhibition of proteasome subunit RPN11 – biochemical, fluorescence polarization, uHTS hits, confirmation (AID 602368); type: functional
[8] = target: 72 kDa type IV collagenase (Homo sapiens, UniProt P08253); experiment: Dose Response validation of uHTS RPN11 inhibitor hits using a MMP-2 Fluorescence assay.; type: functional
[9] = target: Prothrombin (Bos taurus, UniProt P00735); experiment: thrombin protease inhibitors – biochemical, fluorescence polarization, uHTS hits, dose response (AID 602369); type: functional
[10] = target: T3, Insulin-degrading enzyme (Homo sapiens, UniProt P14735); experiment: recombinant IDE activation, cell-free – biochemical, fluorescence polarization, counter-screen for IDE activator project, dose response (AID 588681)
T3 sequence (P14735 whole entry): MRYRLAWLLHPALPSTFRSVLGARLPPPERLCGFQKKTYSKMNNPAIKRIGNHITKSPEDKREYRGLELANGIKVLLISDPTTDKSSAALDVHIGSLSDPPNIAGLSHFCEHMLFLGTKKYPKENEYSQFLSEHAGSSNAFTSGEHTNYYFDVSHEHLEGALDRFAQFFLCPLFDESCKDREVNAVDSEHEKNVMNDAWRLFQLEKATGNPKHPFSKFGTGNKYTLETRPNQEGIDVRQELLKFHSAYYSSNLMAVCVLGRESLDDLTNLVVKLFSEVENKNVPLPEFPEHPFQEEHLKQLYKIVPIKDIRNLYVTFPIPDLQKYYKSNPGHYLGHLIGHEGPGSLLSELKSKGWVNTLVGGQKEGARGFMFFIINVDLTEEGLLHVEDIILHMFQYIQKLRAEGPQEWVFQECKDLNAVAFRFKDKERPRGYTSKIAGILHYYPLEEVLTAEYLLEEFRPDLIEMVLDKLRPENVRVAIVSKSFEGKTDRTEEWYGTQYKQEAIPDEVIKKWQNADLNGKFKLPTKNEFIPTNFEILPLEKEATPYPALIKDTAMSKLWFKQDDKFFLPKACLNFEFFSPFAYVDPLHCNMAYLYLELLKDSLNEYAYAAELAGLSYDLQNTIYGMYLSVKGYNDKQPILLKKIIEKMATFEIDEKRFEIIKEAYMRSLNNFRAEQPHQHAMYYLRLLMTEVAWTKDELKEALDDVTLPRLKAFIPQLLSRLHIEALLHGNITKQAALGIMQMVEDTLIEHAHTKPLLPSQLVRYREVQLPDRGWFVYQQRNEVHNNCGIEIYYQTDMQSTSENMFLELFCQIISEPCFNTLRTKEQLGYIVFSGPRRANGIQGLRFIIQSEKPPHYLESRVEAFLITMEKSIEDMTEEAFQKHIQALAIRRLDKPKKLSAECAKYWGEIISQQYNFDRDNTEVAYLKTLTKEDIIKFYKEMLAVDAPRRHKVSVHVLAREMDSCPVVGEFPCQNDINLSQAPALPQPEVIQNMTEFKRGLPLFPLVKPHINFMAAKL

[11] = target: T3, Insulin-degrading enzyme; experiment: cellular IDE activation of Abeta substrate cleavage – fluorescence polarization, HEK cells, dose response (AID 588439); type: functional, cell-based
[12] = tested on: HEK293; experiment: membrane integrity loss in HEK cells – cell-based, fluorescence, cytotoxicity control for IDE activator project, dose response (AID 588440); type: functional; conditions: Homo sapiens;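 note: cytotoxicity by LDH release measuring loss of membrane integrity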
[13] = tested on: HEK293; experiment: optical interference in Abeta FP readout, dose response, artefact control for IDE activator project, biochemical, fluorescence polarization (AID 588442); type: functional, cell-based; conditions: Homo sapiens
[14] = target: T4, RNA-binding protein pos-1 (Caenorhabditis elegans, UniProt G5EF15); experiment: disruptors of C. elegans POS-1 RNA interaction – biochemical, fluorescence polarization, dose response (AID 1964);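 note: purified POS-1 fused to maltose binding protein made in E. coli; potency of compounds blocking POS-1 binding to fluorescent RNA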
T4 sequence (G5EF15 whole entry): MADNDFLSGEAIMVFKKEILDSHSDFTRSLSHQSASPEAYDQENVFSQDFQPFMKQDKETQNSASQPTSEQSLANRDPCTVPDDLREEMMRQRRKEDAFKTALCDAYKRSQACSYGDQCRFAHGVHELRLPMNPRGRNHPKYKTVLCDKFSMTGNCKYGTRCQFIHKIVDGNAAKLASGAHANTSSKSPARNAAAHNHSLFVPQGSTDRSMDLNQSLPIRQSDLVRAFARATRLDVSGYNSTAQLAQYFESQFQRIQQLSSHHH

[15] = target: T5, Zinc finger protein mex-5 (Caenorhabditis elegans, UniProt Q9XUB2); experiment: potency of MEX-5 RNA-binding blockers – biochemical, C. elegans, fluorescence polarization, dose response (AID 1960)
T5 sequence (Q9XUB2 whole entry): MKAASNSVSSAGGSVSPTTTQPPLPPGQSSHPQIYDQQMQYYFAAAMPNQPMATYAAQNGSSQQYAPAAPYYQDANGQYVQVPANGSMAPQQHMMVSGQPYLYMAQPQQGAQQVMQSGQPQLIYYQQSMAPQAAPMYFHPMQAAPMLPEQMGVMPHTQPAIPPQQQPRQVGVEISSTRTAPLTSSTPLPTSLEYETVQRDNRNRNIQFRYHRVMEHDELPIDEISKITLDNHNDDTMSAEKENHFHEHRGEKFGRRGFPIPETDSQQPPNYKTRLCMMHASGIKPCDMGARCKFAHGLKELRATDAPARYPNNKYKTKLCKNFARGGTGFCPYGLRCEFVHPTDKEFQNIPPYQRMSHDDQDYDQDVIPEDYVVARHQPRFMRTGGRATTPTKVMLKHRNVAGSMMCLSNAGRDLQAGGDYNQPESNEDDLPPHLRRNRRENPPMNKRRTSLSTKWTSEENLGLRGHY

[16] = target: T6, ORF 73 (Human herpesvirus 8, UniProt O40947); experiment: KSHV LANA DNA-binding disruption – biochemical, fluorescence polarization, cherry-picked samples, dose response (AID 504725); parameters: species or system Human gammaherpesvirus 8;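 note: fluorescence polarization of a labeled DNA duplex reporting LANA DNA binding; potency is for inhibitors that block LANA binding to the DNA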
T6 sequence (O40947 whole entry): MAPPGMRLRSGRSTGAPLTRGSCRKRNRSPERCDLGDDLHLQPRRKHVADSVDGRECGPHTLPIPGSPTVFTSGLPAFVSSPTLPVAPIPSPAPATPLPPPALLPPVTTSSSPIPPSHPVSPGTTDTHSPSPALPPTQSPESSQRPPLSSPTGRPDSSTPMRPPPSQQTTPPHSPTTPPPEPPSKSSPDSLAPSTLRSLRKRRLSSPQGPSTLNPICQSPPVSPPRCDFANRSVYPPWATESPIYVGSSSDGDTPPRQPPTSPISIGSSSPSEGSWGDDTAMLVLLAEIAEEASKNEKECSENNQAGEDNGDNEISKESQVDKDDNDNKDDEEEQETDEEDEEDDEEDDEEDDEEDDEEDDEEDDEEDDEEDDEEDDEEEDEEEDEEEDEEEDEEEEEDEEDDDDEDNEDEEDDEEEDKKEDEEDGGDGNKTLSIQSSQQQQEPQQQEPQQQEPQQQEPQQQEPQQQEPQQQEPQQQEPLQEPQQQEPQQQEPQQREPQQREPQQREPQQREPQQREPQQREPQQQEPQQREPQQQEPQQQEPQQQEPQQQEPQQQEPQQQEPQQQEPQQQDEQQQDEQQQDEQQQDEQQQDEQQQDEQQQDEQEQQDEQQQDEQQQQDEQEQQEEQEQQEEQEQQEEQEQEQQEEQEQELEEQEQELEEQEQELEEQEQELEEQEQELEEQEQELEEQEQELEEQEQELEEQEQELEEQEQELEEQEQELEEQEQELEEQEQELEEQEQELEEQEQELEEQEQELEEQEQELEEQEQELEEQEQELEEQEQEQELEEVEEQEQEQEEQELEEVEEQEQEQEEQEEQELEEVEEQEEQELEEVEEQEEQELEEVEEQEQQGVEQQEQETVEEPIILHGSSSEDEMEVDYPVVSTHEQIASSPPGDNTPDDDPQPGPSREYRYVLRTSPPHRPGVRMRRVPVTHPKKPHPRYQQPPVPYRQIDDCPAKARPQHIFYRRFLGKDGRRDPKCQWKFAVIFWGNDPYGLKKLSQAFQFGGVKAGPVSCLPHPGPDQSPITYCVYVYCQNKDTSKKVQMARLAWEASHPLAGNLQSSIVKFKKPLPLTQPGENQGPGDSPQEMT

[17] = target: UDP-galactopyranose mutase (Mycobacterium tuberculosis, UniProt P9WIQ1); experiment: Inhibitors of Mycobacterium tuberculosis UDP-galactopyranose mutase (UGM) enzyme Measured in Biochemical System Using Plate Reader - 2105-02_Inhibitor_Dose_CherryPick_Activity. [Related pubchem assays (depositor defined):AID504439]
[18] = target: Keap1/Nrf2 (Homo sapiens, UniProt Q14145); experiment: disruptors of Keap1 binding to Nrf2 peptide – biochemical, fluorescence polarization, cherry-picked samples, dose response (AID 588683)
Keap1/Nrf2, sequence (Q16236 whole entry): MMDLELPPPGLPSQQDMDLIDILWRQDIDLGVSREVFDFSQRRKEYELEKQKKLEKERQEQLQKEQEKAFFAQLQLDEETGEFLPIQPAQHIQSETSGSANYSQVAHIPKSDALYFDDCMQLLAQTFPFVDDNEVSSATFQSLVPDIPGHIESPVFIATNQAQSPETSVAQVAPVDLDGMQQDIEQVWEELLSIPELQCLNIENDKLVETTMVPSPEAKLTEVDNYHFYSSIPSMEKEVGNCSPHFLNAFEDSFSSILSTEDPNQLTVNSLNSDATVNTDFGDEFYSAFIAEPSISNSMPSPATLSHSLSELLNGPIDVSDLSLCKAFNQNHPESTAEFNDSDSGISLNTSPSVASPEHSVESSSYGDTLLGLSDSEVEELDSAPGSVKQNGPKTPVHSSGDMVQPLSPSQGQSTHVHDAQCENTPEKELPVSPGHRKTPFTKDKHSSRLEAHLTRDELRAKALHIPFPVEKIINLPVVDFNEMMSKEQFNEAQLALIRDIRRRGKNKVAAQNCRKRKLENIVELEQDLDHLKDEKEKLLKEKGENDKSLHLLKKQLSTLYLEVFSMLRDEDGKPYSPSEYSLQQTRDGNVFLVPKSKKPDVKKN
Keap1/Nrf2, sequence (Q14145 whole entry): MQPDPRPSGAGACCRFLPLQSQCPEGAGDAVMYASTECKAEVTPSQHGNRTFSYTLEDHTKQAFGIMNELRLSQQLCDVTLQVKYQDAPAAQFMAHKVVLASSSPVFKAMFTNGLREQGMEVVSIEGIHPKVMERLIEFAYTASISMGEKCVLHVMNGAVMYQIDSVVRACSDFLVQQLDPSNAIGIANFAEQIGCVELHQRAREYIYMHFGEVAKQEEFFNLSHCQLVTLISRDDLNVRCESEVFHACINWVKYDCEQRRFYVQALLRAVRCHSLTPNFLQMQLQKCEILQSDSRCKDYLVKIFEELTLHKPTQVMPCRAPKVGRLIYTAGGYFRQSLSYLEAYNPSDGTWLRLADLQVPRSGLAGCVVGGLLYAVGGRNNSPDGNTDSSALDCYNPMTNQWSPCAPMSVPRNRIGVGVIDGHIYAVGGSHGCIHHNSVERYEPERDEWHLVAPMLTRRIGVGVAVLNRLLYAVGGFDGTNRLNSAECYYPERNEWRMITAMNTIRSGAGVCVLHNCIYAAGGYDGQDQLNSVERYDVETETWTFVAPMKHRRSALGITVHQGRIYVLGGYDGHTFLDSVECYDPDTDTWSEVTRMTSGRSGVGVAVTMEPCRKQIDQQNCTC

26S proteasome non-ATPase regulatory subunit 14, sequence (O00487 whole entry): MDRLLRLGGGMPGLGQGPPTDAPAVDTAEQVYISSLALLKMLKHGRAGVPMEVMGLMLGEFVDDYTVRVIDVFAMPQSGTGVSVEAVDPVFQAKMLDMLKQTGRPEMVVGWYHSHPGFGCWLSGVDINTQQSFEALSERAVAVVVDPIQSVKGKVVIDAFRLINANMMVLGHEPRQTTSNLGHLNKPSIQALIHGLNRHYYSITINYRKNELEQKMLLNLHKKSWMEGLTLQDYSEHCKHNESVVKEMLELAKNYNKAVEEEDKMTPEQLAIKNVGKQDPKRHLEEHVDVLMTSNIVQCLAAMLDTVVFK
72 kDa type IV collagenase, sequence (P08253 whole entry): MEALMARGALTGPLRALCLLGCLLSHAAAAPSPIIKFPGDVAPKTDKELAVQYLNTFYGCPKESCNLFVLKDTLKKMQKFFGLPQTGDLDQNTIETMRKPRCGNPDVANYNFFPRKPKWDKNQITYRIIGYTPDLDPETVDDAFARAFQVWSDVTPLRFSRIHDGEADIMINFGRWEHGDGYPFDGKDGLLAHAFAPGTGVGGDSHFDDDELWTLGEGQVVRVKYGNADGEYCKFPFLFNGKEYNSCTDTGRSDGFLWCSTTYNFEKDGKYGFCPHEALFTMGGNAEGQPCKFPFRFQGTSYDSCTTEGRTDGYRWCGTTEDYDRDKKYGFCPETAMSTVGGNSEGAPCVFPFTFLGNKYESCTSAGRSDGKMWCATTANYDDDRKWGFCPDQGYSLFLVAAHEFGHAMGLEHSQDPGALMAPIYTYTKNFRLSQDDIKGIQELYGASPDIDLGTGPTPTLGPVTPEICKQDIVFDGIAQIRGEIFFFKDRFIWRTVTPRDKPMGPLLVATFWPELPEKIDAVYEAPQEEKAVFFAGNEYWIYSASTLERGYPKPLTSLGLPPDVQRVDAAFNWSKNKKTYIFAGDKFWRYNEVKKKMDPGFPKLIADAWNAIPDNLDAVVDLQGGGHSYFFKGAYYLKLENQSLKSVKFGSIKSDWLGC
UDP-galactopyranose mutase, sequence (P9WIQ1 whole entry): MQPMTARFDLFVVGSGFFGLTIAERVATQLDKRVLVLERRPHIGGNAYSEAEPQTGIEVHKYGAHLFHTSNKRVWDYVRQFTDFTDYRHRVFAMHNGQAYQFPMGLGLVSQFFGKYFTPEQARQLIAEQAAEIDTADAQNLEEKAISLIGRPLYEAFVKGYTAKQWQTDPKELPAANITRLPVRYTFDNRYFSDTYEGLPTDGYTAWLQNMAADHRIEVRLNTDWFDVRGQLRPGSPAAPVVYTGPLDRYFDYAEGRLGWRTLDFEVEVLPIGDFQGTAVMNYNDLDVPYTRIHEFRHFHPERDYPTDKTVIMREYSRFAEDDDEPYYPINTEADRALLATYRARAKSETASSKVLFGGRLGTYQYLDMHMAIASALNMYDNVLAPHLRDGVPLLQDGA

SMILES	IC50 [1]	IC50 [2]	IC50 [3]	IC50 [4]	IC50 [5]	IC50 [6]	EC50 [10]	EC50 [11]	IC50 [12]	EC50 [13]	further results
O=c1c2ccccc2nc2c3ccccc3c(NCc3ccccn3)nn12	> 66.2 µM (inactive)	> 49.7 µM (inactive)	4.96 µM (active)	16.7 µM (inactive)	> 88.8 µM (inactive)	> 50 µM (inactive)					
Cc1cc(C)c2cc3c(N)c(C(=O)Nc4c(C)nc(O)nc4O)sc3nc2c1											IC50 [7]: 13.2 µM (active); IC50 [8]: > 100 µM (inactive); IC50 [9]: 15.5 µM (active)
COc1cc(CNC2CCCC2)cc(OC)c1OC							> 54.7 µM (inactive)	> 54.7 µM (inactive)	> 89.1 µM (inactive)	> 54.7 µM (inactive)	
COc1ccc(NC(=O)NS(=O)(=O)c2ccc(C)cc2)cn1							> 54.7 µM (inactive)	> 54.7 µM (inactive)	> 89.2 µM (inactive)	> 55.9 µM (inactive)	EC50 [14]: 2.37 µM (inconclusive); EC50 [15]: 2.38 µM (inconclusive); AC50 [16]: 87.5 µM (active); AC50 [17]: 90.9 µM (active); AC50 [18]: > 52 µM (inactive)
Cc1ccsc1/C=N/N=C1\C(=O)Nc2ccccc21	46.8 µM (inactive)	> 49.7 µM (inactive)	2.36 µM (active)	8.44 µM (active)	> 88.8 µM (inactive)	> 50 µM (inactive)					
